Source: patent publication US11000033B2, “Ketone or oxime compound, and herbicide” (NISSAN CHEMICAL CORPORATION, priority 2014, dated 2021)

What was measured:
Assay type in all cases: in vivo
[1] = tested on: Echinochloa crus-galli var. crus-galli; experiment: Test Example 3: herbicidal effect by foliage application, Wagner pot (symbol H); settings: application herbicide amount 320 g/ha
Method in brief: (§1)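 Herbicidal activity was rated three weeks after a foliar spray of diluted emulsion concentrate, applied at a predetermined dose to plants grown for 14 days from seed in waterlogged alluvial soil within a 25–30 °C greenhouse.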

Leptochloa chinensis = experiment: Test Example 3: herbicidal effect by foliage application, Wagner pot (symbol D); settings: application herbicide amount 320 g/ha
Method in brief: as §1

Cyperus difformis = experiment: Test Example 3: herbicidal effect by foliage application, Wagner pot (symbol E); settings: application herbicide amount 320 g/ha
Method in brief: as §1

[2] = tested on: directly sowed rice plant; experiment: Test Example 3: effect on crop by foliage application, Wagner pot (symbol b); settings: application herbicide amount 320 g/ha
Method in brief: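 Steps: fill a 1/10000-are Wagner pot with alluvial soil; add water and mix to submerge at 0.1–0.5 cm depth; sow rice plus Echinochloa crus-galli var. crus-galli, Leptochloa chinensis and Cyperus difformis; grow in a 25–30 °C greenhouse.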

Digitaria ciliaris = experiment: Test Example 5: herbicidal effect by foliage application, plastic box (symbol F); settings: 320 g/ha, 3 weeks after application
Method in brief: (§2)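 Emulsion formulation, diluted with water to the intended rate, was applied uniformly to leaves by small sprayer. Recipients were 14-day greenhouse-grown seedlings (25° C. to 30° C.). Assessment followed at 3 weeks.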

Setaria viridis = experiment: Test Example 5: herbicidal effect by foliage application, plastic box (symbol G); settings: 320 g/ha, 3 weeks after application
Method in brief: as §2

[3] = tested on: Echinochloa crus-galli var. crus-galli; experiment: Test Example 5: herbicidal effect by foliage application, plastic box (symbol H); settings: 320 g/ha, 3 weeks after application
Method in brief: as §2

Avena fatua = experiment: Test Example 5: herbicidal effect by foliage application, plastic box (symbol I); settings: 320 g/ha, 3 weeks after application
Method in brief: as §2

Alopecurus myosuroides = experiment: Test Example 5: herbicidal effect by foliage application, plastic box (symbol J); settings: 320 g/ha, 3 weeks after application
Method in brief: as §2

Lolium multiflorum Lam. = experiment: Test Example 5: herbicidal effect by foliage application, plastic box (symbol K); settings: 320 g/ha, 3 weeks after application
Method in brief: as §2

Apera spica-venti = experiment: Test Example 5: herbicidal effect by foliage application, plastic box (symbol L); settings: 320 g/ha, 3 weeks after application
Method in brief: as §2

Abutilon theophrasti = experiment: Test Example 5: herbicidal effect by foliage application, plastic box (symbol M); settings: 320 g/ha, 3 weeks after application
Method in brief: as §2

Amaranthus retroflexus = experiment: Test Example 5: herbicidal effect by foliage application, plastic box (symbol N); settings: 320 g/ha, 3 weeks after application
Method in brief: as §2

Chenopodium album = experiment: Test Example 5: herbicidal effect by foliage application, plastic box (symbol O); settings: 320 g/ha, 3 weeks after application
Method in brief: as §2

Stellaria media = experiment: Test Example 5: herbicidal effect by foliage application, plastic box (symbol P); settings: 320 g/ha, 3 weeks after application
Method in brief: as §2

Galium spurium = experiment: Test Example 5: herbicidal effect by foliage application, plastic box (symbol Q); settings: 320 g/ha, 3 weeks after application
From the text: Herbicidal Effect Test by Foliage Application
Sterilized diluvial soil was placed in a plastic box having a length of 21 cm, a width of 13 cm, and a depth of 7 cm. Each of the seeds of Digitaria ciliaris, Setaria viridis, Echinochloa crus-galli var. crus-galli, Avena fatua, Alopecurus myosuroides, Lolium multiflorum Lam., Apera spica-venti, Abutilon theophrasti, Amaranthus retroflexus, Chenopodium album, Stellaria media, Galium spurium, Veronica persica, corn, soybean, rice plant, wheat, beet, and rapeseed was sowed in a spot-like manner and was covered with the soil of a thickness of about 1.5 cm. Thereafter, the plants were grown in the greenhouse of 25° C. to 30° C. After the plants were grown for 14 days, the emulsion agent of the compound of the present invention prepared in accordance with Formulation Example 2 was diluted with water so as to be a predetermined herbicide amount and the diluted emulsion agent was uniformly applied to a foliage part with a small-size spray. 3 weeks later from the herbicide application, the effect to each plant was investigated in accordance with the criteria of Test Example 1.

Veronica persica = experiment: Test Example 5: herbicidal effect by foliage application, plastic box (symbol R); settings: 320 g/ha, 3 weeks after application
Method in brief: as §2

corn = experiment: Test Example 5: effect on crop by foliage application, plastic box (symbol c); settings: 320 g/ha, 3 weeks after application
Method in brief: (§3)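 Soil: sterilized diluvial. Container: plastic box, 21 × 13 cm, 7 cm deep. Sowing: spot-like, ~1.5 cm cover. Growth: greenhouse, 25° C. to 30° C.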

soybean = experiment: Test Example 5: effect on crop by foliage application, plastic box (symbol d); settings: 320 g/ha, 3 weeks after application
Method in brief: as §3

rice plant = experiment: Test Example 5: effect on crop by foliage application, plastic box (symbol b); settings: 320 g/ha, 3 weeks after application
Method in brief: as §3

wheat = experiment: Test Example 5: effect on crop by foliage application, plastic box (symbol e); settings: 320 g/ha, 3 weeks after application
Method in brief: as §3

beet = experiment: Test Example 5: effect on crop by foliage application, plastic box (symbol f); settings: 320 g/ha, 3 weeks after application
Method in brief: as §3

rapeseed = experiment: Test Example 5: effect on crop by foliage application, plastic box (symbol g); settings: 320 g/ha, 3 weeks after application
Method in brief: as §3

CC(CC1CC(O)=C(c2c(C)cc(C)cc2C)C1=O)=NOCCN (stereo not drawn) [1-132]
herbicidal effect on H (Echinochloa crus-galli var. crus-galli), grade 0-5 [1]: 2 (Herbicidal ratio of 20% or higher and lower than 40%)
herbicidal effect on D (Leptochloa chinensis), grade 0-5 (Leptochloa chinensis): 1 (Herbicidal ratio of 5% or higher and lower than 20%)
herbicidal effect on E, grade 0-5 (Cyperus difformis): 0 (Herbicidal ratio of 5% or lower (almost no effect))
effect on crop b (directly sowed rice plant), grade 0-5 [2]: 1 (Herbicidal ratio of 5% or higher and lower than 20%)
F: Digitaria ciliaris, herbicidal effect (criteria 0-5) (Digitaria ciliaris): 0 (Herbicidal ratio of 5% or lower (almost no effect))
G: Setaria viridis, herbicidal effect (criteria 0-5) (Setaria viridis): 0 (Herbicidal ratio of 5% or lower (almost no effect))
H: Echinochloa crus-galli var. crus-galli, herbicidal effect (criteria 0-5) [3]: 0 (Herbicidal ratio of 5% or lower (almost no effect))
I: Avena fatua, herbicidal effect (criteria 0-5) (Avena fatua): 1 (Herbicidal ratio of 5% or higher and lower than 20%)
J: Alopecurus myosuroides, herbicidal effect (criteria 0-5) (Alopecurus myosuroides): 2 (Herbicidal ratio of 20% or higher and lower than 40%)
K: Lolium multiflorum Lam., herbicidal effect (criteria 0-5) (Lolium multiflorum Lam.): 3 (Herbicidal ratio of 40% or higher and lower than 70%)
L: Apera spica-venti, herbicidal effect (criteria 0-5) (Apera spica-venti): 1 (Herbicidal ratio of 5% or higher and lower than 20%)
M: Abutilon theophrasti, herbicidal effect (criteria 0-5) (Abutilon theophrasti): 0 (Herbicidal ratio of 5% or lower (almost no effect))
N: Amaranthus retroflexus, herbicidal effect (criteria 0-5) (Amaranthus retroflexus): 0 (Herbicidal ratio of 5% or lower (almost no effect))
O: Chenopodium album, herbicidal effect (criteria 0-5) (Chenopodium album): 0 (Herbicidal ratio of 5% or lower (almost no effect))
P: Stellaria media, herbicidal effect (criteria 0-5) (Stellaria media): 0 (Herbicidal ratio of 5% or lower (almost no effect))
Q: Galium spurium, herbicidal effect (criteria 0-5) (Galium spurium): 0 (Herbicidal ratio of 5% or lower (almost no effect))
R: Veronica persica, herbicidal effect (criteria 0-5) (Veronica persica): 0 (Herbicidal ratio of 5% or lower (almost no effect))
c: corn, effect on crop (criteria 0-5) (corn): 0 (Herbicidal ratio of 5% or lower (almost no effect))
d: soybean, effect on crop (criteria 0-5) (soybean): 0 (Herbicidal ratio of 5% or lower (almost no effect))
b: directly sowed rice plant, effect on crop (criteria 0-5) (rice plant): 1 (Herbicidal ratio of 5% or higher and lower than 20%)
e: wheat, effect on crop (criteria 0-5) (wheat): 0 (Herbicidal ratio of 5% or lower (almost no effect))
f: beet, effect on crop (criteria 0-5) (beet): 0 (Herbicidal ratio of 5% or lower (almost no effect))
g: rapeseed, effect on crop (criteria 0-5) (rapeseed): 3 (Herbicidal ratio of 40% or higher and lower than 70%)

CON=C(C)CC1CC(OC(=O)N(C(C)C)C(C)C)=C(c2c(C)cc(C)cc2C)C1=O (stereo not drawn) [1-158]
herbicidal effect on H (Echinochloa crus-galli var. crus-galli), grade 0-5 [1]: 0 (Herbicidal ratio of 5% or lower (almost no effect))
herbicidal effect on D (Leptochloa chinensis), grade 0-5 (Leptochloa chinensis): 2 (Herbicidal ratio of 20% or higher and lower than 40%)
herbicidal effect on E, grade 0-5 (Cyperus difformis): 0 (Herbicidal ratio of 5% or lower (almost no effect))
effect on crop b (directly sowed rice plant), grade 0-5 [2]: 2 (Herbicidal ratio of 20% or higher and lower than 40%)
F: Digitaria ciliaris, herbicidal effect grade (Digitaria ciliaris): 0 (Herbicidal ratio of 5% or lower (almost no effect))
G: Setaria viridis, herbicidal effect grade (Setaria viridis): 0 (Herbicidal ratio of 5% or lower (almost no effect))
H: Echinochloa crus-galli var. crus-galli, herbicidal effect grade [3]: 1 (Herbicidal ratio of 5% or higher and lower than 20%)
I: Avena fatua, herbicidal effect grade (Avena fatua): 3 (Herbicidal ratio of 40% or higher and lower than 70%)
J: Alopecurus myosuroides, herbicidal effect grade (Alopecurus myosuroides): 1 (Herbicidal ratio of 5% or higher and lower than 20%)
K: Lolium multiflorum Lam., herbicidal effect grade (Lolium multiflorum Lam.): 4 (Herbicidal ratio of 70% or higher and lower than 90%)
L: Apera spica-venti, herbicidal effect grade (Apera spica-venti): 0 (Herbicidal ratio of 5% or lower (almost no effect))
M: Abutilon theophrasti, herbicidal effect grade (Abutilon theophrasti): 0 (Herbicidal ratio of 5% or lower (almost no effect))
N: Amaranthus retroflexus, herbicidal effect grade (Amaranthus retroflexus): 0 (Herbicidal ratio of 5% or lower (almost no effect))
O: Chenopodium album, herbicidal effect grade (Chenopodium album): 0 (Herbicidal ratio of 5% or lower (almost no effect))
P: Stellaria media, herbicidal effect grade (Stellaria media): 0 (Herbicidal ratio of 5% or lower (almost no effect))
Q: Galium spurium, herbicidal effect grade (Galium spurium): 0 (Herbicidal ratio of 5% or lower (almost no effect))
R: Veronica persica, herbicidal effect grade (Veronica persica): 0 (Herbicidal ratio of 5% or lower (almost no effect))
c: corn, effect on crop grade (corn): 0 (Herbicidal ratio of 5% or lower (almost no effect))
d: soybean, effect on crop grade (soybean): 0 (Herbicidal ratio of 5% or lower (almost no effect))
b: directly sowed rice plant, effect on crop grade (rice plant): 1 (Herbicidal ratio of 5% or higher and lower than 20%)
e: wheat, effect on crop grade (wheat): 0 (Herbicidal ratio of 5% or lower (almost no effect))
f: beet, effect on crop grade (beet): 0 (Herbicidal ratio of 5% or lower (almost no effect))
g: rapeseed, effect on crop grade (rapeseed): 2 (Herbicidal ratio of 20% or higher and lower than 40%)

CCOC(=O)C(C(=O)C1CCCCC1)C1CC(O)=C(c2c(C)cc(C)cc2C)C1=O (stereo not drawn) [2-029]
herbicidal effect on H (Echinochloa crus-galli var. crus-galli), grade 0-5 [1]: 0 (Herbicidal ratio of 5% or lower (almost no effect))
herbicidal effect on D (Leptochloa chinensis), grade 0-5 (Leptochloa chinensis): 0 (Herbicidal ratio of 5% or lower (almost no effect))
herbicidal effect on E, grade 0-5 (Cyperus difformis): 0 (Herbicidal ratio of 5% or lower (almost no effect))
effect on crop b (directly sowed rice plant), grade 0-5 [2]: 4 (Herbicidal ratio of 70% or higher and lower than 90%)
F: Digitaria ciliaris, herbicidal effect grade (Digitaria ciliaris): 0 (Herbicidal ratio of 5% or lower (almost no effect))
G: Setaria viridis, herbicidal effect grade (Setaria viridis): 0 (Herbicidal ratio of 5% or lower (almost no effect))
H: Echinochloa crus-galli var. crus-galli, herbicidal effect grade [3]: 0 (Herbicidal ratio of 5% or lower (almost no effect))
I: Avena fatua, herbicidal effect grade (Avena fatua): 2 (Herbicidal ratio of 20% or higher and lower than 40%)
J: Alopecurus myosuroides, herbicidal effect grade (Alopecurus myosuroides): 0 (Herbicidal ratio of 5% or lower (almost no effect))
K: Lolium multiflorum Lam., herbicidal effect grade (Lolium multiflorum Lam.): 1 (Herbicidal ratio of 5% or higher and lower than 20%)
L: Apera spica-venti, herbicidal effect grade (Apera spica-venti): 0 (Herbicidal ratio of 5% or lower (almost no effect))
M: Abutilon theophrasti, herbicidal effect grade (Abutilon theophrasti): 0 (Herbicidal ratio of 5% or lower (almost no effect))
N: Amaranthus retroflexus, herbicidal effect grade (Amaranthus retroflexus): 0 (Herbicidal ratio of 5% or lower (almost no effect))
O: Chenopodium album, herbicidal effect grade (Chenopodium album): 0 (Herbicidal ratio of 5% or lower (almost no effect))
P: Stellaria media, herbicidal effect grade (Stellaria media): 0 (Herbicidal ratio of 5% or lower (almost no effect))
Q: Galium spurium, herbicidal effect grade (Galium spurium): 0 (Herbicidal ratio of 5% or lower (almost no effect))
R: Veronica persica, herbicidal effect grade (Veronica persica): 0 (Herbicidal ratio of 5% or lower (almost no effect))
c: corn, effect on crop grade (corn): 0 (Herbicidal ratio of 5% or lower (almost no effect))
d: soybean, effect on crop grade (soybean): 0 (Herbicidal ratio of 5% or lower (almost no effect))
b: directly sowed rice plant, effect on crop grade (rice plant): 2 (Herbicidal ratio of 20% or higher and lower than 40%)
e: wheat, effect on crop grade (wheat): 0 (Herbicidal ratio of 5% or lower (almost no effect))
f: beet, effect on crop grade (beet): 0 (Herbicidal ratio of 5% or lower (almost no effect))
g: rapeseed, effect on crop grade (rapeseed): 0 (Herbicidal ratio of 5% or lower (almost no effect))
